Laboratory results as given in patent US20090047742A1 (priority 2005, published 2009).

What was measured:
[1] = system: human GAPDH and β-actin mRNA; assay: real-time RT-PCR quantification of mRNA levels in T-Rex-293 cells; assay type: cell-based; conditions: MazF induction for 72 hours, T-Rex-293 cells
Method: Northern blot analysis and real-time PCR (RT-PCR) was preformed as previously described (Zhang, Y., et al., Mol. Cell 12: 913-923 (2003); Cuconati, A., et al., Genes Dev. 17: 2922-2932 (2003)). Total RNA from tetracycline-treated (0, 24, 48 and 72 hr) or untreated (0, 24, 48 and 72 hr) T-Rex-293 (mazF/pcDNA3) and T-Rex-293 (mazF/mazE) cells for were isolated through the use of Trizol Reagent (Gibco, Carlsbad, Calif.). For Northern blot analysis, 10 μg of total RNA from each condition was subjected to formaldehyde-agarose gel electrophoresis followed by transfer onto GeneScreen Plus membrane (NEN Life Science Products, Boston, Mass.). The blot was hybridized with ^32P-labeled human GAPDH or β-actin cDNA. One hundred ng of total RNA was subjected to real time RT-PCR with the Taqman EZ-RT PCR kit (PE Applied Biosystems, Lincoln Centre Drive Foster City, Calif.) using recommended conditions provided by the vendor. […] Reactions were carried out in triplicate and the relative amount of human GAPDH and β-actin mRNA was calculated from the difference in fluorescence signal in the 24-, 48- and 72-hr samples compared with the corresponding 0 hr sample.

iBMK cells = assay: β-galactosidase assay, viability of iBMK cells co-expressing LacZ; assay type: cell-based, mouse
Method: β-galactosidase assays to determine the viability of iBMK cells co-expressing LacZ and MazF were performed as previously described (Han, J., Sabbatini, P., and White, E. Mol. Cell. Biol. 16: 5857-5864 (1996)). W2, D3, X2 and K1 co-transfected with pcDNA6/His/LacZ and pcDNA4/TO/mazF or pcDNA3 for 48 hr were fixed in 1% glutaraldehyde and then stained with 0.2% X-gal solution at 37° C. for 24 hr. β-Galactosidase positive blue cells and the total number of cells (approximately 200 cells) were independently counted on a 6-cm diameter dish.

caspase-3, PARP = assay: Western blot of active caspase-3 and PARP in T-Rex-293 lysates; assay type: cell-based, human
Method: Western blot analysis and immunofluorescence were performed as previously described (Perez, D., and White, E. J. Cell Biol. 141: 1255-1266 (1998); Perez, D., and White, E. Mol. Cell 6: 53-63 (2000)). The term “Western blot” refers to a method for identifying proteins in a complex mixture; proteins are separated electrophoretically in a gel medium; transferred from the gel to a protein binding sheet or membrane; and the sheet or membrane containing the separated proteins exposed to specific antibodies which bind to, locate, and enable visualization of protein(s) of interest. T-Rex-293 (mazF/pcDNA3) and T-Rex-293 (mazF/mazE) cells were harvested at 0, 24, 48 and 72 hr post-treatment with tetracycline or staurosporine by scraping and centrifugation. All cell pellets were lysed in 2× Laemmli buffer. Cell lysates were subjected to electrophoresis on a 15% SDS-PAGE gel and then transferred onto an Immobilon-P membrane (Millipore, Bedford, Mass.). The blot was incubated with following antibody: anti-active caspase-3 rabbit polyclonal antibody (Cell Signaling Technology, Beverly, Mass.), anti-BAX, anti-BAK rabbit polyclonal antibody (NT) (Upstate Biotechnology Inc., Lake Placid, N.Y.), anti-BID goat polyclonal antibody (R&D Systems, Inc, Minneapolis, Minn.), anti-Bim rabbit polyclonal antibody (Alexis Biochemical, San Diego, Calif.), anti-BCL-2 hamster monoclonal antibody (PharMingen, San Diego, Calif.), anti-BCL-XL mouse monoclonal antibody (Trevigen, Gaithersburg, Md.), anti-MCL-1 rabbit polyclonal antibody (Stressgen Biotechnologies, Victoria, British Columbia, Canada), anti-PARP mouse monoclonal antibody (PharMingen, San Diego, Calif.), anti-PUMA rabbit polyclonal antibody (Nelson, D. A., et al., Genes Dev. 18: 2095-2107 (2004)), anti-E1A monoclonal antibody; anti-actin monoclonal antibody (Oncogene Research Products); and anti-Xpress monoclonal antibody (Invitrogen). An antibody directed to human NBK/BIK was generated by expression of a GST-tagged human NBK/BIK fusion protein encoding an N-terminal 78-amino acid region in bacteria and immunization of rabbits (Cocalico). Western Blots were developed with horseradish peroxidase-conjugated secondary antibodies using the ECL system (Amersham-Pharmacia Biotech, Piscataway, N.J.).

[2] = system: human GAPDH and β-actin mRNA; assay: Northern blot analysis of cellular mRNA in T-Rex-293 cells; assay type: cell-based; conditions: T-Rex-293 (mazF/pcDNA3) cells
Method: Northern blot analysis and real-time PCR (RT-PCR) was preformed as previously described (Zhang, Y., et al., Mol. Cell 12: 913-923 (2003); Cuconati, A., et al., Genes Dev. 17: 2922-2932 (2003)). Total RNA from tetracycline-treated (0, 24, 48 and 72 hr) or untreated (0, 24, 48 and 72 hr) T-Rex-293 (mazF/pcDNA3) and T-Rex-293 (mazF/mazE) cells for were isolated through the use of Trizol Reagent (Gibco, Carlsbad, Calif.). For Northern blot analysis, 10 μg of total RNA from each condition was subjected to formaldehyde-agarose gel electrophoresis followed by transfer onto GeneScreen Plus membrane (NEN Life Science Products, Boston, Mass.). The blot was hybridized with ^32P-labeled human GAPDH or β-actin cDNA. One hundred ng of total RNA was subjected to real time RT-PCR with the Taqman EZ-RT PCR kit (PE Applied Biosystems, Lincoln Centre Drive Foster City, Calif.) using recommended conditions provided by the vendor. Primers to analyze the level of human GAPDH mRNA were obtained from Applied Biosystems, and a probe for GAPDH was supplied with 5′ linkage to the reporter dye 2, 7-dimethoxy-4, 5-dichloro-6-carboxy-fluoroecein (JOE), and 3′ linkage to the quencher 6-carboxy-tetramethylrhodamine (TAMURA). β-actin primer sequences were 5′-[…]-3′ and 5′-[…]-3′. β-actin probe sequence was FAM-5′-[…] TTCC-3′-TAMURA. Reactions were carried out in triplicate and the relative amount of human GAPDH and β-actin mRNA was calculated from the difference in fluorescence signal in the 24-, 48- and 72-hr samples compared with the corresponding 0 hr sample.
To assess cellular mRNA levels, total RNA was isolated from whole cells of Tet-treated or -untreated T-Rex-293 cells and subjected to Northern blot analysis using human GAPDH and β-actin cDNA probes. […] Labeled single-stranded DNA fragments complementary to the specific mRNA being sought then are hybridized to the bound mRNA and the label detected by suitable means. […]

MazF: E. coli toxin; sequence specific endoribonuclease (mRNA interferase) cleaving single-stranded RNAs at ACA sequences; expressed from plasmid pcDNA4/TO/mazF
decrease of both GAPDH and β-actin mRNAs (real-time RT-PCR) [1]: > 90%
β-galactosidase expression (iBMK cells; D3 (bax−/− bak−/−) iBMK cells expressing MazF): little effect
response to MazF (β-galactosidase assay) (iBMK cells; K1 (bak−/−) iBMK cells): preferentially resistant
β-galactosidase positive cells (iBMK cells; W2 iBMK cells transiently co-expressing LacZ and MazF, 48 hours post-transfection): significant decrease
number of β-galactosidase positive cells (iBMK cells; X2 (bax−/−) iBMK cells expressing MazF): significantly decreased
response to MazF-induced cell death (β-galactosidase assay) (iBMK cells; nbk/bik−/− iBMK cells): preferentially resistant
number of β-galactosidase positive cells (iBMK cells; puma−/−, bim−/−, noxa−/− iBMK cells transiently expressing MazF): significantly decreased
cleaved PARP (Western blot) (caspase-3, PARP; T-Rex-293 (mazF/pcDNA3) treated with Tet for 48 hours): detected
cleaved PARP levels (Western blot) (caspase-3, PARP; T-Rex-293 (mazF/pcDNA3), 72 hours post-induction of MazF): further increased
processed active caspase-3 (Western blot) (caspase-3, PARP; extracts from T-Rex-293 (mazF/pcDNA3) cells treated with Tet): presence of the processed active form of caspase-3
levels of both GAPDH and β-actin mRNAs (Northern blot) ([2]; 48 hours post-induction of MazF): almost completely lost
levels of both GAPDH and β-actin mRNAs (Northern blot) ([2]; after 24 hours of MazF induction by Tet): dramatically decreased
